Data: EP1591107A1, “Process for the selective increase of a release rate of an active material from a pharmaceutical composition” (Pfizer GmbH Arzneimittelwerk Gödecke, priority 2004, dated 2005)
Values after ≈ are worked out from the molar mass of the structure shown. Where a name gives a salt, the structure may show the parent alone. Read-outs that look alike come from different tables or passages of the source.

Tests used:
[1] = in water, classification taken from the European Pharmacopoeia, cited from earlier work
[2] = Solubility in water (European Pharmacopoeia solubility classes)

SMILES | solubility class according to the European Pharmacopoeia ([1]; hydrochloride) | solubility class according to the European Pharmacopoeia ([1]; listed as Diltiazem® hydrochloride, hydrochloride) | solubility class according to the European Pharmacopoeia [1] | volume of water in which 1 g is soluble ([2]; 1 g of active material, water) [mL] | solubility class according to the definition of the European Pharmacopoeia ([2]; class derived from the printed solubility in water) | solubility ([2]; water) [mg/mL]
COc1ccc([C@@H]2Sc3ccccc3N(CCN(C)C)C(=O)[C@@H]2OC(C)=O)cc1 [diltiazem hydrochloride] | freely soluble | very soluble | – | – | – | –
CC(C)C[C@H](CN)CC(=O)O [pregabalin] | – | – | sparingly soluble | 31 | sparingly soluble | 32.1 (≈ 202 mM)
